Measured values reported in ChEMBL document CHEMBL1201862, “PubChem BioAssay data set” (2004).
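48-hour exposure; five concentrations; linearly interpolated endpoints. Here, GI50 denotes the concentration required for 50% inhibition of growth.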 Activity calls are given as the source filed them. Cut-off read from the data, not from the text of the source: active = GI50 up to about 1.1 µM and inactive = higher.

Legend:
Experiment in all cases: NCI tumour cell line growth inhibition, 48 h
[1] = test system: COLO 205
[2] = test system: CCRF-CEM
[3] = test system: OVCAR-3
[4] = test system: IGROV-1
[5] = test system: TK-10
[6] = test system: NCI-H226
[7] = test system: A498
[8] = test system: HCT-116
[9] = test system: KM12
[10] = test system: RXF 393
[11] = test system: SF-268
[12] = test system: UACC-62
[13] = test system: PC-3
[14] = test system: ACHN
[15] = test system: 786-0
[16] = test system: M14
[17] = test system: SNB-75
[18] = test system: UACC-257
[19] = test system: MDA-MB-435
[20] = test system: NCI/ADR-RES

Row | SMILES | GI50 [1] | GI50 [2] | GI50 [3] | GI50 [4] | GI50 [5] | GI50 [6] | GI50 [7] | GI50 [8] | GI50 [9] | GI50 [10] | GI50 [11] | GI50 [12] | GI50 [13] | GI50 [14] | GI50 [15] | GI50 [16] | GI50 [17] | GI50 [18] | GI50 [19] | GI50 [20]
1 | CCC1=C(C=O)c2cc3[nH]c(cc4nc(c5c6[nH]c(cc1n2)c(C)c6C(=O)C5C(=O)OC)C(CCC(=O)OC)C4C)c(C)c3CC (stereo unspecified) | > 100 µM (inactive) | > 100 µM (inactive) | > 100 µM (inactive) | > 100 µM (inactive) | > 100 µM (inactive) | > 100 µM (inactive) | > 100 µM (inactive) | > 100 µM (inactive) | > 100 µM (inactive) | > 100 µM (inactive) | > 100 µM (inactive) | > 100 µM (inactive) | > 100 µM (inactive) | > 100 µM (inactive) | > 100 µM (inactive) | > 100 µM (inactive) | > 100 µM (inactive) | > 100 µM (inactive) | > 100 µM (inactive) | –
2 | CCOC(=O)C(=O)N1C(C)=C(C(=O)OCC)CC(C(=O)OCC)=C1C | > 100 µM (inactive) | > 100 µM (inactive) | > 100 µM (inactive) | > 100 µM (inactive) | > 100 µM (inactive) | – | > 100 µM (inactive) | > 100 µM (inactive) | > 100 µM (inactive) | > 100 µM (inactive) | – | > 100 µM (inactive) | > 100 µM (inactive) | > 100 µM (inactive) | > 100 µM (inactive) | > 100 µM (inactive) | 26.7 µM (inactive) | > 100 µM (inactive) | > 100 µM (inactive) | –
3 | O=C(OC1C2OC(=O)c3cc(O)c(O)c(O)c3Oc3cc4c(c(O)c3O)-c3c(cc(O)c(O)c3O)C(=O)OCC3OC(O)C(OC(=O)c5cc(O)c(O)c(O)c5Oc5cc6c(c(O)c5O)-c5c(cc(O)c(O)c5O)C(=O)OC1C(COC6=O)OC2O)C(OC(=O)c1cc(O)c(O)c(O)c1)C3OC4=O)c1cc(O)c(O)c(O)c1 (stereo unspecified) | 5.87 µM (inactive) | 3.61 µM (inactive) | 25.8 µM (inactive) | 40.2 µM (inactive) | 38.7 µM (inactive) | 22.4 µM (inactive) | – | 16.4 µM (inactive) | 3.36 µM (inactive) | 21.9 µM (inactive) | 26.4 µM (inactive) | 28.4 µM (inactive) | 20 µM (inactive) | 38.9 µM (inactive) | 21 µM (inactive) | 35.2 µM (inactive) | – | 81.5 µM (inactive) | 21.4 µM (inactive) | 58.2 µM (inactive)
4 | O=C1C(Cl)C(c2cccc(Cl)c2)N1c1ccc(-n2c(S)nc3ccccc3c2=O)cc1 (stereo unspecified) | 24.5 µM (inactive) | 23 µM (inactive) | 30.5 µM (inactive) | 5.07 µM (inactive) | 29.6 µM (inactive) | 25.4 µM (inactive) | – | 24.4 µM (inactive) | 28.4 µM (inactive) | 4.08 µM (inactive) | 12.6 µM (inactive) | 14.8 µM (inactive) | 27.7 µM (inactive) | 18.7 µM (inactive) | 19 µM (inactive) | 19.5 µM (inactive) | – | 26.9 µM (inactive) | 15.7 µM (inactive) | 25.8 µM (inactive)
5 | CC(=O)CC(=O)N1CCSC1=S | – | > 10 µM (inactive) | > 10 µM (inactive) | > 10 µM (inactive) | > 10 µM (inactive) | > 10 µM (inactive) | > 10 µM (inactive) | > 10 µM (inactive) | > 10 µM (inactive) | > 10 µM (inactive) | > 10 µM (inactive) | > 10 µM (inactive) | > 10 µM (inactive) | > 10 µM (inactive) | > 10 µM (inactive) | > 10 µM (inactive) | > 10 µM (inactive) | > 10 µM (inactive) | > 10 µM (inactive) | –
6 | CCOC(=O)C(NC(=O)NC(C(=O)OCC)C(=O)OCC)C(=O)OCC | – | – | > 100 µM (inactive) | > 100 µM (inactive) | > 100 µM (inactive) | > 100 µM (inactive) | – | > 100 µM (inactive) | – | > 100 µM (inactive) | > 100 µM (inactive) | > 100 µM (inactive) | > 100 µM (inactive) | > 100 µM (inactive) | > 100 µM (inactive) | > 100 µM (inactive) | – | > 10 µM (inactive) | 98.2 µM (inactive) | > 100 µM (inactive)
7 | Cn1nc2ccc([N+](=O)[O-])c(Cn3nnc4ccccc43)c2n1 | > 100 µM (inactive) | > 100 µM (inactive) | > 100 µM (inactive) | > 100 µM (inactive) | > 100 µM (inactive) | > 100 µM (inactive) | > 100 µM (inactive) | > 100 µM (inactive) | 76.7 µM (inactive) | > 100 µM (inactive) | > 100 µM (inactive) | > 100 µM (inactive) | – | > 100 µM (inactive) | > 100 µM (inactive) | > 100 µM (inactive) | 70.3 µM (inactive) | > 100 µM (inactive) | 90.8 µM (inactive) | 71 µM (inactive)
8 | Cc1cccc(O)c1-c1nnc(CCCCCCCCc2nnc(-c3c(C)cccc3O)n2N)n1N | > 31.6 µM (inactive) | 0.929 µM (active) | 50.5 µM (inactive) | > 100 µM (inactive) | > 41.4 µM (inactive) | 55.7 µM (inactive) | > 100 µM (inactive) | 72.3 µM (inactive) | 95.1 µM (inactive) | – | 51.3 µM (inactive) | 66.7 µM (inactive) | > 100 µM (inactive) | > 85.7 µM (inactive) | 2.67 µM (inactive) | > 39.7 µM (inactive) | 25 µM (inactive) | > 100 µM (inactive) | > 69.5 µM (inactive) | –
9 | COC(=O)C1=Nc2c(C)nn(-c3ccccc3)c2N=C(c2ccc(C)cc2)C1 | > 10 µM (inactive) | – | > 10 µM (inactive) | > 10 µM (inactive) | > 10 µM (inactive) | – | – | > 10 µM (inactive) | > 10 µM (inactive) | – | > 10 µM (inactive) | > 10 µM (inactive) | > 10 µM (inactive) | > 10 µM (inactive) | > 10 µM (inactive) | > 10 µM (inactive) | > 10 µM (inactive) | > 10 µM (inactive) | > 10 µM (inactive) | > 10 µM (inactive)
10 | CCSCCCN(CCCSCC)CCCSCC | > 100 µM (inactive) | > 100 µM (inactive) | > 100 µM (inactive) | 88.3 µM (inactive) | – | – | – | > 100 µM (inactive) | > 100 µM (inactive) | – | > 100 µM (inactive) | > 100 µM (inactive) | > 100 µM (inactive) | – | > 100 µM (inactive) | > 100 µM (inactive) | > 100 µM (inactive) | > 100 µM (inactive) | > 100 µM (inactive) | > 100 µM (inactive)
11 | C=C1CC2CC(=O)C(O)C(C1)C2 (stereo unspecified) | > 100 µM (inactive) | > 100 µM (inactive) | > 100 µM (inactive) | – | > 100 µM (inactive) | > 100 µM (inactive) | > 100 µM (inactive) | > 100 µM (inactive) | > 100 µM (inactive) | > 100 µM (inactive) | > 100 µM (inactive) | > 100 µM (inactive) | – | > 100 µM (inactive) | > 100 µM (inactive) | > 100 µM (inactive) | 58.5 µM (inactive) | > 100 µM (inactive) | > 100 µM (inactive) | > 100 µM (inactive)
12 | CCOC(=O)C12CCC(=O)N1N(C)c1ncccc1N2 (stereo unspecified) | > 100 µM (inactive) | > 100 µM (inactive) | > 100 µM (inactive) | > 100 µM (inactive) | > 100 µM (inactive) | > 100 µM (inactive) | > 100 µM (inactive) | > 100 µM (inactive) | > 100 µM (inactive) | > 100 µM (inactive) | > 100 µM (inactive) | > 100 µM (inactive) | – | > 100 µM (inactive) | > 100 µM (inactive) | > 100 µM (inactive) | 67.1 µM (inactive) | > 100 µM (inactive) | > 100 µM (inactive) | > 100 µM (inactive)
13 | CSc1nc2c(nc(N)n2C2OC(CO)C(O)C(O)C2O)c(=O)n1C (stereo unspecified) | > 100 µM (inactive) | > 100 µM (inactive) | > 100 µM (inactive) | > 100 µM (inactive) | > 100 µM (inactive) | > 100 µM (inactive) | > 100 µM (inactive) | > 100 µM (inactive) | > 100 µM (inactive) | > 100 µM (inactive) | > 100 µM (inactive) | > 100 µM (inactive) | – | > 100 µM (inactive) | > 100 µM (inactive) | > 100 µM (inactive) | > 100 µM (inactive) | > 100 µM (inactive) | – | –
14 | COc1cc2cc[n+](C)c(Cc3ccccc3)c2cc1OC | > 100 µM (inactive) | > 100 µM (inactive) | > 100 µM (inactive) | > 100 µM (inactive) | > 100 µM (inactive) | > 100 µM (inactive) | > 100 µM (inactive) | > 100 µM (inactive) | > 100 µM (inactive) | > 100 µM (inactive) | > 100 µM (inactive) | > 100 µM (inactive) | – | > 100 µM (inactive) | > 100 µM (inactive) | > 100 µM (inactive) | > 100 µM (inactive) | > 100 µM (inactive) | – | –
15 | CCOC(=O)CCC(NC(=O)c1ccc(Oc2nc3ccccc3nc2C(=O)OCC)cc1)C(=O)OCC (stereo unspecified) | > 100 µM (inactive) | > 100 µM (inactive) | > 100 µM (inactive) | > 100 µM (inactive) | > 100 µM (inactive) | – | – | 72.3 µM (inactive) | > 100 µM (inactive) | – | > 100 µM (inactive) | > 100 µM (inactive) | > 100 µM (inactive) | > 100 µM (inactive) | 37.2 µM (inactive) | > 100 µM (inactive) | 21.5 µM (inactive) | > 100 µM (inactive) | > 100 µM (inactive) | 55.1 µM (inactive)
